Measurements reported in patent publication US11873295B2, “Allosteric chromenone inhibitors of phosphoinositide 3-kinase (PI3K) for the treatment of disease” (Petra Pharma Corporation, priority 2021, dated 2024).

Assays:
[1] = biological target: T1, human full length PIK3KA H1047R mutant (p110α/p85α complex) (Homo sapiens, UniProt P42336, H1047R); experiment: PI3K-alpha kinase (PIK3CA) biochemical activity, H1047R mutant, ADP-Glo; conditions: PI3K-α (PIK3CA) biochemical, H1047R mutant, Soy PI lipid substrate
T1 construct: Recombinant, catalytically active human full length PIK3KA Wild-type and H1047R mutant were purchased as 1:1 complex; 6xHis (N); purchased EMD Millipore Sigma 14-792M
How it was run: (§1)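 Full-length His-p110α/p85α complex, wild-type or H1047R, 1–5 nM, preincubated with compound 1 h at 27 °C in HEPES pH 7.4, 25 mM MgCl2, 0.01% Triton X-100, 1% DMSO. Reaction with 20 μM ATP and 50 μM PIP2diC8 or soy PI at 27 °C to ~10% ATP conversion; ADP-Glo luminescence. IC50 from 10-point four-parameter logistic fit.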

[2] = tested on: PI3K-α (PIK3CA) in MDA-MB-453 cells; experiment: PI3K-alpha kinase (PIK3CA) activity in vitro cell based assay, MDA-MB-453 cells, AlphaLisa SureFire; conditions: Homo sapiens, MDA-MB-453, 3 h, 0% FBS, 3 hours treatment, relative IC50
Description: PI3K-Alpha Kinase (PIK3CA) Activity In Vitro Cell Based Assay and Determining IC50 Values for Inhibitors
The MDA-MB-453 (ATCC-HTB-131) cell line was obtained from the American Type Culture Collection (Manassas, VA). Cells were maintained in Dulbecco's Modified Eagle Media (DMEM, Gibco 11965-092) supplemented with 10% Fetal Bovine Serum, heat inactivated (FBS HI, Gibco 10082-147), 1× non-essential amino acids (NEAA, Gibco 11140-050), and 1 mM sodium pyruvate (Gibco 11360-070). Cultures were maintained in a humidified incubator at 37° C. under 5% CO2/95% air.
For compound testing in 0% FBS, MDA-MB-453 cells were seeded at a density of 1.5×10^4 cells per well in white 384-well plates in 20 μl of Minimum Essential Media (MEM) assay media with 1×NEAA, 1 mM sodium pyruvate, and 1 μg/mL human insulin (Sigma I9278). Compounds dissolved in 10 mM stock solutions in DMSO were serially diluted 1:3 in DMSO to generate a 10-point dilution series and plated using an acoustic liquid handler system (Echo 550 Series Liquid Handler, Labcyte). A 5× intermediate compound dilution plate in MEM with 1×NEAA and 1 mM sodium pyruvate (150 μM starting compound concentration in 1.5% DMSO) was then prepared. Five μl of the intermediate serially diluted compounds were added to the cell plate to final concentrations ranging from […] in 0.3% DMSO. 0.3% DMSO alone was used to establish the maximum (MAX) signal and GDC-0032 at a final concentration of 1 μM was used as a reference compound for the minimum (MIN) signal. After 3 hours treatment, the medium was removed, and the cells lysed in 10 μL of 1× SureFire Lysis buffer with shaking for 10 minutes at room temperature. The Acceptor Mix (Reaction Buffer 1+Reaction Buffer 2+Activation Buffer+SureFire Ultra Acceptor Beads) was prepared by diluting Activation buffer 25-fold in combined Reaction Buffer 1 and Reaction Buffer 2. The Acceptor beads were diluted 50-fold in the combined Reaction Buffers. Five μL of Acceptor Mix was added to each well, the plate was sealed and covered with foil and incubated for 1 hour at room temperature. The Donor Mix (dilution buffer+SureFire Ultra Donor Beads) was prepared by diluting Donor Beads 50-fold in dilution buffer. Five μL of the Donor Mix was added to each well and the plate sealed and covered with foil and incubated for 1 hour at room temperature in the dark. The plates were read on a Neo2 plate reader instrument from Biotek using standard AlphaLisa settings. Compounds were tested in duplicate and the average % inhibition at each compound concentration was used to generate a single dose response curve. The data were processed using the Genedata-Screener tool. Relative IC50 values were determined using luminescence units by calculating percent inhibition with respect to the in-plate “MIN” (GDC-0032 reference control) and “MAX” (DMSO) controls. The data was analyzed using a 4-parameter nonlinear logistic equation (four-parameter logistic concentration-response curve): Y=bottom+[(top−bottom)/1+(X/IC50)slope] where Y=% inhibition, X=concentration of inhibitor, bottom=minimum value of y attained by curve-fit, top=maximum value of y attained by curve-fit and slope=steepness of curve at the IC50. % Inhibition=[(signal at X−median Min)/(median Max−median Min)]×100 IC50: concentration of compound that reduces a given response (ligand binding, enzyme response) by 50%. Relative IC50: concentration giving half the compound's maximum response.
For IC50 values shown in Table B, “A” means IC50<50 nM; “B” means IC50 ranging between 50 nM and 100 nM; “C” means IC50 ranging between 100 nM and 500 nM; “D” means IC50>500 nM.

[3] = biological target: T2, human full length PIK3KA Wild-type (p110α/p85α complex) (Homo sapiens, UniProt P42336); experiment: PI3K-alpha kinase (PIK3CA) biochemical activity, wild-type, ADP-Glo; conditions: PI3K-α (PIK3CA) biochemical, Soy PI lipid substrate
T2 construct: Recombinant, catalytically active human full length PIK3KA Wild-type and H1047R mutant were purchased as 1:1 complex; 6xHis (N); purchased EMD Millipore Sigma 14-602M
How it was run: as §1

T1 sequence (P42336 whole entry H1047R): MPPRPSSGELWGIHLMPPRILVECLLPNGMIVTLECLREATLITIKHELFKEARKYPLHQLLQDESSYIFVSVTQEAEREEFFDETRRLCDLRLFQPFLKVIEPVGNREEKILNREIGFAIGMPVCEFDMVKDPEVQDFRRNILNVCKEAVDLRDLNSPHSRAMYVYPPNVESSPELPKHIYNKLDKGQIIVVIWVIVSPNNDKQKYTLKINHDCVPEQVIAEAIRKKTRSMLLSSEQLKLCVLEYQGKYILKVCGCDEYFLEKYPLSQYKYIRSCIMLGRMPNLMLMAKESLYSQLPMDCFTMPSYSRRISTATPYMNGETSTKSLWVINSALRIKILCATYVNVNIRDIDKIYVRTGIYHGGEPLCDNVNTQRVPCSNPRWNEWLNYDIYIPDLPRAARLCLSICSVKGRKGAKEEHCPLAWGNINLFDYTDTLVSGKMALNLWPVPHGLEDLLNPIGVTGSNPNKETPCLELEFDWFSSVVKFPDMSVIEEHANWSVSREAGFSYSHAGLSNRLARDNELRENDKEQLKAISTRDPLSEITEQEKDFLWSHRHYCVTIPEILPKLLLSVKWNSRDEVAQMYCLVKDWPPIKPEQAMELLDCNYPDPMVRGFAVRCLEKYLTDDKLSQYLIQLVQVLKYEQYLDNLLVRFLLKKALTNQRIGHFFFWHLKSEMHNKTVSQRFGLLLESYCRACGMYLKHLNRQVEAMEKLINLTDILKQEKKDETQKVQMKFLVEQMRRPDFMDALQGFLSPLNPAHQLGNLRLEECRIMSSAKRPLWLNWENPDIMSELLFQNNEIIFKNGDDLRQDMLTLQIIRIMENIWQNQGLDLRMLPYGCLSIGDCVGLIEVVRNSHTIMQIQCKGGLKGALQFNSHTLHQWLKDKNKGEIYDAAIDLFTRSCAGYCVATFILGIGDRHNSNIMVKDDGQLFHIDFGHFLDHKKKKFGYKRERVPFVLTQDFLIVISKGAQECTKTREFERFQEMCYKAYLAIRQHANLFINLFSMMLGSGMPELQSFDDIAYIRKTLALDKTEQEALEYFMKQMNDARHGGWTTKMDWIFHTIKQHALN
T1 sequence (P27986 whole entry partner): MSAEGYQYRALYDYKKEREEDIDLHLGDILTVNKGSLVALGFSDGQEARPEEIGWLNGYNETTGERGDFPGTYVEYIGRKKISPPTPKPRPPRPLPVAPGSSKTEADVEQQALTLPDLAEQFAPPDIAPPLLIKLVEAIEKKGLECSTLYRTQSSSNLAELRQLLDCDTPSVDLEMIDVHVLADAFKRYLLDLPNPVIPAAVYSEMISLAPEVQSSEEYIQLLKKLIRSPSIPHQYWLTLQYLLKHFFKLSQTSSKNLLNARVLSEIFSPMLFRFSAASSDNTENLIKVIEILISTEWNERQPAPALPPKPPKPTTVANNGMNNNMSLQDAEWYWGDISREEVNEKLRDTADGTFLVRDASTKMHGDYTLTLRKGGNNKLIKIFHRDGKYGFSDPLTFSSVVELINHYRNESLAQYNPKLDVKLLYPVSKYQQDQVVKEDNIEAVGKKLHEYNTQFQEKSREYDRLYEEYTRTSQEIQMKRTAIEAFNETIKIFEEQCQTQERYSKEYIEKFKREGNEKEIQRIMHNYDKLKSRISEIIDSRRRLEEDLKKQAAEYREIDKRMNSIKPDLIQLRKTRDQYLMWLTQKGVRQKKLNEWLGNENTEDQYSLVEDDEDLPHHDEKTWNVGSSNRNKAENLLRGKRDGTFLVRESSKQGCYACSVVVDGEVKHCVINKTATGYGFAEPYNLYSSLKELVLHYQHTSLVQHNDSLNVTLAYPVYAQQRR

IC50 [1] [nM] | IC50 [2] [nM] | IC50 [3] [nM] | Compound
< 500 | < 50 | 5000 to 10000 | Cc1cc([C@@H](C)Nc2ccc(C)nc2C(=O)O)c2oc(-c3cccc(F)c3)c(C)c(=O)c2c1 [Example 134, 3-[[(1R)-1-[2-(3-Fluorophenyl)-3,6-dimethyl-4-oxo-chromen-8-yl]ethyl]amino]-6-methyl-pyridine-2-carboxylic acid]
< 500 | < 50 | 500 to 1000 | Cc1cc([C@@H](C)Nc2ccc(C#N)nc2C(=O)O)c2oc(-c3ccccc3)c(C)c(=O)c2c1 (single isomer, unassigned; isomer 1) [Example 159]
< 500 | < 50 | 1000 to 5000 | Cc1c(-c2ccccc2)oc2c([C@@H](C)Nc3ccc(Cl)nc3C(=O)O)cc(C(F)(F)F)cc2c1=O [Example 91, 6-Chloro-3-[[(1R)-1-[3-methyl-4-oxo-2-phenyl-6-(trifluoromethyl)-chromen-8-yl]ethyl]amino]pyridine-2-carboxylic acid]
< 500 | < 50 | 1000 to 5000 | Cc1c(-c2ccccc2)oc2c([C@@H](C)Nc3ccccc3C(=O)O)cc(C(F)(F)F)cc2c1=O [Example 102, 2-[[(1R)-1-[3-Methyl-4-oxo-2-phenyl-6-(trifluoromethyl)-chromen-8-yl]ethyl]amino]benzoic acid]
< 500 | < 50 | < 500 | Cc1cc([C@@H](C)Nc2ccc(F)c(F)c2C(=O)O)c2oc(-c3ccccc3)c(C)c(=O)c2c1 [Example 38, 6-[[(1R)-1-(3,6-Dimethyl-4-oxo-2-phenyl-chromen-8-yl)ethyl]amino]-2,3-difluoro-benzoic acid]
< 500 | < 50 | 1000 to 5000 | C[C@@H](Nc1ccc(Cl)nc1C(=O)O)c1cc(C(F)(F)F)cc2c(=O)cc(-c3ccc(F)cc3F)oc12 [Example 81, 6-Chloro-3-[[(1R)-1-[2-(2,4-difluorophenyl)-4-oxo-6-(trifluoromethyl)-chromen-8-yl]ethyl]amino]pyridine-2-carboxylic acid]

More lines, now with the values behind:

Compound | IC50 [1] [nM] | IC50 [2] [nM] | IC50 [3] [nM]
COc1ccc(-c2cc(=O)c3cc(C)cc([C@@H](C)Nc4ccccc4C(=O)O)c3o2)cc1 [Example 66, 2-[[(1R)-1-[2-(4-Methoxyphenyl)-6-methyl-4-oxo-chromen-8-yl]ethyl]amino]benzoic acid 2,2,2-trifluoroacetic acid] | < 500 | < 50 | 1000 to 5000
Cc1cc([C@@H](C)Nc2ccc(C)nc2C(=O)O)c2oc(-c3ccc(F)c(F)c3)c(C)c(=O)c2c1 [Example 124, 3-[[(1R)-1-[2-(3,4-Difluorophenyl)-3,6-dimethyl-4-oxo-chromen-8-yl]ethyl]amino]-6-methyl-pyridine-2-carboxylic acid] | < 500 | < 50 | 1000 to 5000
Cc1cc([C@@H](C)Nc2ccccc2C(=O)O)c2oc(-c3ccc(F)cc3F)c(C)c(=O)c2c1 [Example 75, 2-[[(1R)-1-[2-(2,4-Difluorophenyl)-3,6-dimethyl-4-oxo-chromen-8-yl]ethyl]amino]benzoic acid] | < 500 | < 50 | 1000 to 5000
Cc1cc([C@@H](C)Nc2ccc(C3CC3)nc2C(=O)O)c2oc(-c3ccccc3)c(C)c(=O)c2c1 [Example 40, 6-Cyclopropyl-3-[[(1R)-1-(3,6-dimethyl-4-oxo-2-phenyl-chromen-8-yl)ethyl]amino]-pyridine-2-carboxylic acid] | < 500 | 50 to 100 | 5000 to 10000
Cc1cc([C@@H](C)Nc2ccccc2C(=O)O)c2oc(-c3ccc(-c4ccn[nH]4)cc3)c(C)c(=O)c2c1 [Example 168, 2-[[(1R)-1-[3,6-Dimethyl-4-oxo-2-[4-(1H-pyrazol-5-yl)phenyl]chromen-8-yl]ethyl]amino]benzoic acid] | < 500 | < 50 | 500 to 1000
CC(=O)c1c(-c2ccccc2)oc2c([C@@H](C)Nc3ccccc3C(=O)O)cc(C)cc2c1=O [Example 119, 2-[[(1R)-1-(3-Acetyl-6-methyl-4-oxo-2-phenyl-chromen-8-yl)ethyl]amino]benzoic acid 2,2,2-trifluoroacetic acid] | < 500 | < 50 | 500 to 1000
Cc1cc(C(C)Nc2ccc(C)nc2C(=O)O)c2oc(-c3ccccc3)c(C(F)(F)F)c(=O)c2c1 (stereo not drawn) [Example 101, 6-Methyl-3-[1-[6-methyl-4-oxo-2-phenyl-3-(trifluoromethyl)-chromen-8-yl]ethylamino]pyridine-2-carboxylic acid 2,2,2-trifluoroacetic acid] | < 500 | < 50 | < 500
Cc1cc([C@@H](C)Nc2cccc(F)c2C(=O)O)c2oc(-c3ccc(F)cc3F)c(C)c(=O)c2c1 [Example 130, 2-[[(1R)-1-[2-(2,4-Difluorophenyl)-3,6-dimethyl-4-oxo-chromen-8-yl]ethyl]amino]-6-fluoro-benzoic acid 2,2,2-trifluoroacetic acid] | < 500 | < 50 | 1000 to 5000
Cc1cc([C@@H](C)Nc2ccc(C)nc2C(=O)O)c2oc(-c3ccccc3F)c(C)c(=O)c2c1 [Example 148, 3-[[(1R)-1-[2-(2-Fluorophenyl)-3,6-dimethyl-4-oxo-chromen-8-yl]ethyl]amino]-6-methyl-pyridine-2-carboxylic acid] | 500 to 1000 | < 50 | 5000 to 10000
Cc1cc([C@@H](C)Nc2ccccc2C(=O)O)c2oc(-c3ccccc3)c(C(F)(F)F)c(=O)c2c1 [Example 70, 2-[[(1R)-1-[6-Methyl-4-oxo-2-phenyl-3-(trifluoromethyl)-chromen-8-yl]ethyl]amino]benzoic acid 2,2,2-trifluoroacetic acid] | < 500 | < 50 | 1000 to 5000
Cc1cc([C@@H](C)Nc2ccc(Cl)nc2C(=O)O)c2oc(-c3ccccc3F)c(C)c(=O)c2c1 [Example 114, 6-Chloro-3-[[(1R)-1-[2-(2-fluorophenyl)-3,6-dimethyl-4-oxo-chromen-8-yl]ethyl]amino]pyridine-2-carboxylic acid 2,2,2-trifluoroacetic acid] | < 500 | < 50 | 1000 to 5000
Cc1cc([C@@H](C)Nc2ccc(Cl)cc2C(=O)O)c2oc(-c3ccc(F)c(F)c3)c(C)c(=O)c2c1 [Example 146, 5-Chloro-2-[[(1R)-1-[2-(3,4-difluorophenyl)-3,6-dimethyl-4-oxo-chromen-8-yl]ethyl]amino]benzoic acid] | 1000 to 5000 | < 50 | 1000 to 5000
